From patent US20230085307A1, “PYRIDAZINONE COMPOUND AND HERBICIDE” (NISSAN CHEMICAL CORPORATION, priority 2019, published 2023)

How the values were obtained:
rice flat sedge = assay: Test Example 3: herbicidal effect by foliage application, Wagner pot (Table 18, symbol E); type: in vivo, rice flat sedge (Cyperus iria); conditions: for herbicidal effect on E: rice flat sedge: amount of applied herbicide 320 g/ha
Description: (§1) [Test Example 3] Herbicidal Effect Test by Foliage Application After alluvial soil was placed into 1/10000 are of Wagner pot, water was poured and mixed to form a submerged condition having a water depth of 0.1 cm to 0.5 cm. Seeds of barnyard grass, Chinese sprangletop, rice flat sedge, and rice were sowed and the pot was placed in a greenhouse at 25° C. to 30° C. for growth of the plants. After 14-day growth of the plants, the emulsion agent of the compound of the present invention prepared according to Formulation Example 2 was diluted with water so as to achieve a predetermined herbicide amount, and the diluted emulsion agent was uniformly applied to a foliage part with a small-sized spray. Three weeks after the herbicide application, the effect of the herbicide on each plant was evaluated according to the criteria of Test Example 1.

barnyard grass [1] = assay: Test Example 3: herbicidal effect by foliage application, Wagner pot (Table 18, symbol H); type: in vivo, barnyard grass (Echinochloa crus-galli); conditions: for herbicidal effect on H: barnyard grass: amount of applied herbicide 320 g/ha
Description: as §1

Chinese sprangletop = assay: Test Example 3: herbicidal effect by foliage application, Wagner pot (Table 18, symbol D); type: in vivo, chinese sprangletop (Leptochloa chinensis); conditions: for herbicidal effect on D: Chinese sprangletop: amount of applied herbicide 320 g/ha
Description: as §1

wild oat = assay: Test Example 5: herbicidal effect by foliage application, plastic box (Table 20, symbol I); type: in vivo, wild oat (Avena fatua); conditions: foliage application, 320 g/ha; for effect on wild oat (I): 3 weeks after application
Text: (§2) [Test Example 5] Herbicidal Effect Test by Foliage Application
(§3) Sterilized diluvial soil was placed in a plastic box having a length of 21 cm, a width of 13 cm, and a depth of 7 cm. The seeds of each of southern crabgrass, green foxtail, barnyard grass, wild oat, blackgrass, Italian ryegrass, windgrass, velvetleaf, redroot pigweed, lambsquarters, chickweed, false cleavers, persian speedwell, corn, soybean, rice, wheat, beet, and rapeseed were sowed in a spot-like manner and covered with the soil having a thickness of about 1.5 cm. Thereafter, the plants were grown in a greenhouse at 25° C. to 30° C. After 14-day growth of the plants, the emulsion agent of the compound of the present invention prepared according to Formulation Example 2 was diluted with water so as to achieve a predetermined herbicide amount, and the diluted emulsion agent was uniformly applied to a foliage part with a small-sized spray. Three weeks after the herbicide application, the effect of the herbicide on each plant was evaluated according to the criteria of Test Example 1.

barnyard grass [2] = assay: Test Example 5: herbicidal effect by foliage application, plastic box (Table 20, symbol H); type: in vivo, barnyard grass (Echinochloa crus-galli); conditions: foliage application, 320 g/ha; for effect on barnyard grass (H): 3 weeks after application
Text: as §2, §3

green foxtail = assay: Test Example 5: herbicidal effect by foliage application, plastic box (Table 20, symbol G); type: in vivo, green foxtail (Setaria viridis); conditions: foliage application, 320 g/ha; for effect on green foxtail (G): 3 weeks after application
Text: as §2, §3

windgrass = assay: Test Example 5: herbicidal effect by foliage application, plastic box (Table 20, symbol L); type: in vivo, windgrass (Apera spica-venti); conditions: foliage application, 320 g/ha; for effect on windgrass (L): 3 weeks after application
Text: as §2, §3

blackgrass = assay: Test Example 5: herbicidal effect by foliage application, plastic box (Table 20, symbol J); type: in vivo, blackgrass (Alopecurus myosuroides); conditions: foliage application, 320 g/ha; for effect on blackgrass (J): 3 weeks after application
Text: as §2, §3

Italian ryegrass = assay: Test Example 5: herbicidal effect by foliage application, plastic box (Table 20, symbol K); type: in vivo, Italian ryegrass (Lolium multiflorum); conditions: foliage application, 320 g/ha; for effect on Italian ryegrass (K): 3 weeks after application
Text: as §2, §3

southern crabgrass = assay: Test Example 5: herbicidal effect by foliage application, plastic box (Table 20, symbol F); type: in vivo, southern crabgrass (Digitaria ciliaris); conditions: foliage application, 320 g/ha; for effect on southern crabgrass (F): 3 weeks after application
Text: as §2, §3

velvetleaf = assay: Test Example 5: herbicidal effect by foliage application, plastic box (Table 20, symbol M); type: in vivo, velvetleaf (Abutilon theophrasti); conditions: foliage application, 320 g/ha; for effect on velvetleaf (M): 3 weeks after application
Text: as §2, §3

lambsquarters = assay: Test Example 5: herbicidal effect by foliage application, plastic box (Table 20, symbol O); type: in vivo, lambsquarters (Chenopodium album); conditions: foliage application, 320 g/ha; for effect on lambsquarters (O): 3 weeks after application
Text: as §2, §3

persian speedwell = assay: Test Example 5: herbicidal effect by foliage application, plastic box (Table 20, symbol R); type: in vivo, Persian speedwell (Veronica persica); conditions: foliage application, 320 g/ha; for effect on persian speedwell (R): 3 weeks after application
Text: as §2, §3

SMILES: CCCC(=O)Oc1c(OC)nn(C)c(=O)c1-c1c(-c2ccc(Oc3ccccc3)cc2)sc2ccccc12 [1-165]
- herbicidal effect on E (rice flat sedge), rating 0-5 (rice flat sedge; 80 g/ha): 0 (Herbicidal rate of 5% or less (almost no effect))
- herbicidal effect on H (barnyard grass), rating 0-5 (barnyard grass [1]; 80 g/ha): 2 (Herbicidal rate of 20% or more and less than 40%)
- herbicidal effect on D (Chinese sprangletop), rating 0-5 (Chinese sprangletop; 80 g/ha): 0 (Herbicidal rate of 5% or less (almost no effect))

SMILES: CCCC(=O)Oc1c(OC)nn(C)c(=O)c1-c1c(-c2ccsc2)sc2ccccc12 [1-193]
- herbicidal effect on E (rice flat sedge), rating 0-5 (rice flat sedge; 80 g/ha): 0 (Herbicidal rate of 5% or less (almost no effect))
- herbicidal effect on H (barnyard grass), rating 0-5 (barnyard grass [1]; 80 g/ha): 2 (Herbicidal rate of 20% or more and less than 40%)
- herbicidal effect on D (Chinese sprangletop), rating 0-5 (Chinese sprangletop; 80 g/ha): 1 (Herbicidal rate of 5% or more and less than 20%)

SMILES: COc1nn(C)c(=O)c(-c2c(-c3cc4ccccc4o3)sc3ccccc23)c1O [1-194]
- herbicidal effect on E (rice flat sedge), rating 0-5 (rice flat sedge; 320 g/ha): 2 (Herbicidal rate of 20% or more and less than 40%)
- effect on wild oat (I) (wild oat): 1 (Herbicidal rate of 5% or more and less than 20%)
- effect on barnyard grass (H) (barnyard grass [2]): 0 (Herbicidal rate of 5% or less (almost no effect))
- effect on green foxtail (G) (green foxtail): 0 (Herbicidal rate of 5% or less (almost no effect))
- effect on windgrass (L) (windgrass): 0 (Herbicidal rate of 5% or less (almost no effect))
- herbicidal effect on H (barnyard grass), rating 0-5 (barnyard grass [1]; 320 g/ha): 0 (Herbicidal rate of 5% or less (almost no effect))
- effect on blackgrass (J) (blackgrass): 0 (Herbicidal rate of 5% or less (almost no effect))
- effect on Italian ryegrass (K) (Italian ryegrass): 3 (Herbicidal rate of 40% or more and less than 70%)
- herbicidal effect on D (Chinese sprangletop), rating 0-5 (Chinese sprangletop; 320 g/ha): 0 (Herbicidal rate of 5% or less (almost no effect))
- effect on southern crabgrass (F) (southern crabgrass): 0 (Herbicidal rate of 5% or less (almost no effect))
- effect on velvetleaf (M) (velvetleaf): 0 (Herbicidal rate of 5% or less (almost no effect))
- effect on lambsquarters (O) (lambsquarters): 0 (Herbicidal rate of 5% or less (almost no effect))
- effect on persian speedwell (R) (persian speedwell): 0 (Herbicidal rate of 5% or less (almost no effect))

SMILES: CCCC(=O)Oc1c(OC)nn(C)c(=O)c1-c1c(-c2cc3ccccc3o2)sc2ccccc12 [1-195]
- effect on wild oat (I) (wild oat): 0 (Herbicidal rate of 5% or less (almost no effect))
- effect on barnyard grass (H) (barnyard grass [2]): 0 (Herbicidal rate of 5% or less (almost no effect))
- effect on green foxtail (G) (green foxtail): 0 (Herbicidal rate of 5% or less (almost no effect))
- effect on windgrass (L) (windgrass): 0 (Herbicidal rate of 5% or less (almost no effect))
- effect on blackgrass (J) (blackgrass): 0 (Herbicidal rate of 5% or less (almost no effect))
- effect on Italian ryegrass (K) (Italian ryegrass): 0 (Herbicidal rate of 5% or less (almost no effect))
- effect on southern crabgrass (F) (southern crabgrass): 0 (Herbicidal rate of 5% or less (almost no effect))
- effect on velvetleaf (M) (velvetleaf): 0 (Herbicidal rate of 5% or less (almost no effect))
- effect on lambsquarters (O) (lambsquarters): 0 (Herbicidal rate of 5% or less (almost no effect))
- effect on persian speedwell (R) (persian speedwell): 0 (Herbicidal rate of 5% or less (almost no effect))

SMILES: Cc1nn(C)c(=O)c(-c2c(-c3ccc(C(F)(F)F)cc3Cl)sc3ccc(F)cc23)c1O [2-356]
- herbicidal effect on E: rice flat sedge (rice flat sedge): 4 (Herbicidal rate of 70% or more and less than 90%)
- herbicidal effect on H: barnyard grass (barnyard grass [1]): 4 (Herbicidal rate of 70% or more and less than 90%)
- herbicidal effect on D: Chinese sprangletop (Chinese sprangletop): 4 (Herbicidal rate of 70% or more and less than 90%)

SMILES: Cc1nn(C)c(=O)c(-c2c(-c3cnc(Cl)s3)sc3ccc(F)cc23)c1O [2-394]
- herbicidal effect on E: rice flat sedge (rice flat sedge): 5 (Herbicidal rate of 90% or more (almost completely withered))
- herbicidal effect on H: barnyard grass (barnyard grass [1]): 5 (Herbicidal rate of 90% or more (almost completely withered))
- herbicidal effect on D: Chinese sprangletop (Chinese sprangletop): 3 (Herbicidal rate of 40% or more and less than 70%)

SMILES: COc1c(C)nn(C)c(=O)c1-c1c(-c2ccnc(F)c2)sc2ccc(F)cc12 [2-427]
- herbicidal effect on E: rice flat sedge (rice flat sedge): 2 (Herbicidal rate of 20% or more and less than 40%)
- herbicidal effect on H: barnyard grass (barnyard grass [1]): 3 (Herbicidal rate of 40% or more and less than 70%)
- herbicidal effect on D: Chinese sprangletop (Chinese sprangletop): 0 (Herbicidal rate of 5% or less (almost no effect))

SMILES: Cc1nn(C)c(=O)c(-c2c(-c3ccc(OC(F)F)cc3)sc3c(Cl)cccc23)c1O [4-074]
- herbicidal effect on rice flat sedge (E) (rice flat sedge; 320 g/ha): 3 (Herbicidal rate of 40% or more and less than 70%)
- herbicidal effect on barnyard grass (H) (barnyard grass [1]; 320 g/ha): 4 (Herbicidal rate of 70% or more and less than 90%)
- herbicidal effect on Chinese sprangletop (D) (Chinese sprangletop; 320 g/ha): 0 (Herbicidal rate of 5% or less (almost no effect))

SMILES: CCCC(=O)Oc1c(C)nn(C)c(=O)c1-c1c(-c2ccccc2O)sc2c(Cl)cccc12 [4-080]
- herbicidal effect on rice flat sedge (E) (rice flat sedge; 320 g/ha): 4 (Herbicidal rate of 70% or more and less than 90%)
- herbicidal effect on barnyard grass (H) (barnyard grass [1]; 320 g/ha): 2 (Herbicidal rate of 20% or more and less than 40%)
- herbicidal effect on Chinese sprangletop (D) (Chinese sprangletop; 320 g/ha): 3 (Herbicidal rate of 40% or more and less than 70%)

SMILES: CCCC(=O)Oc1c(C)nn(C)c(=O)c1-c1c(-c2ccc(C(F)(F)F)cc2)sc2cc(Cl)c(Cl)cc12 [5-048]
- herbicidal effect on rice flat sedge (E) (rice flat sedge; 320 g/ha): 0 (Herbicidal rate of 5% or less (almost no effect))
- herbicidal effect on barnyard grass (H) (barnyard grass [1]; 320 g/ha): 3 (Herbicidal rate of 40% or more and less than 70%)
- herbicidal effect on Chinese sprangletop (D) (Chinese sprangletop; 320 g/ha): 4 (Herbicidal rate of 70% or more and less than 90%)

SMILES: COc1cc2sc(-c3ccc(C#N)cc3)c(-c3c(O)c(C)nn(C)c3=O)c2cc1Cl [5-074]
- herbicidal effect on rice flat sedge (E) (rice flat sedge; 320 g/ha): 3 (Herbicidal rate of 40% or more and less than 70%)
- herbicidal effect on barnyard grass (H) (barnyard grass [1]; 320 g/ha): 3 (Herbicidal rate of 40% or more and less than 70%)
- herbicidal effect on Chinese sprangletop (D) (Chinese sprangletop; 320 g/ha): 5 (Herbicidal rate of 90% or more (almost completely withered))

SMILES: COc1ccccc1-c1oc2ccc(Cl)cc2c1-c1c(O)c(C)nn(C)c1=O [9-001]
- herbicidal effect on wild oat (I) (wild oat; three weeks after application): 0 (Herbicidal rate of 5% or less (almost no effect))
- herbicidal effect on barnyard grass (H) (barnyard grass [2]; three weeks after application): 0 (Herbicidal rate of 5% or less (almost no effect))
- herbicidal effect on green foxtail (G) (green foxtail; three weeks after application): 0 (Herbicidal rate of 5% or less (almost no effect))
- herbicidal effect on windgrass (L) (windgrass; three weeks after application): 0 (Herbicidal rate of 5% or less (almost no effect))
- herbicidal effect on blackgrass (J) (blackgrass; three weeks after application): 0 (Herbicidal rate of 5% or less (almost no effect))
- herbicidal effect on Italian ryegrass (K) (Italian ryegrass; three weeks after application): 0 (Herbicidal rate of 5% or less (almost no effect))
- herbicidal effect on southern crabgrass (F) (southern crabgrass; three weeks after application): 0 (Herbicidal rate of 5% or less (almost no effect))
- herbicidal effect on velvetleaf (M) (velvetleaf; three weeks after application): 2 (Herbicidal rate of 20% or more and less than 40%)
- herbicidal effect on lambsquarters (O) (lambsquarters; three weeks after application): 3 (Herbicidal rate of 40% or more and less than 70%)
- herbicidal effect on persian speedwell (R) (persian speedwell; three weeks after application): 0 (Herbicidal rate of 5% or less (almost no effect))
